Laboratory results taken from paper PMC7113773 (Antiviral Research, 2014).

Key:
[1] = system: HIV; experiment: MTT-based antiviral assay, HIV in MT-4 cells; type: cell-based, human immunodeficiency virus; settings: maximum concentration of 100 μM, data not shown
[2] = biological target: PR8-derived viral RNA polymerase (Influenza A virus, UniProt P03428+P03431+P03433); type: cell-based; settings: 11, 33 and 100 μM, Vero cells, FLuc normalized against RLuc, day 1
[3] = biological target: PR8 NA (Influenza A virus, UniProt P03468); experiment: biochemical
[4] = system: pore-forming glycoprotein perforin; settings: previous study, ref Lena et al., 2008; cited from earlier work
[5] = system: PR8 virus; type: cell-based, influenza A virus
[6] = system: A/Hong Kong/8/68 (H3N2); experiment: organism not typed; type: cell-based, influenza A virus; settings: for EC50: MDCK, 72 h, read-out: EC50 for influenza virus A/Hong Kong/8/68
[7] = system: CoxB; experiment: MTT-based antiviral assay, CoxB in HeLa cells; type: cell-based, Coxsackie B virus; settings: maximum concentration of 100 μM, data not shown
[8] = system: A/Puerto Rico/8/34 (H1N1; PR8); experiment: organism not typed; type: cell-based, influenza A virus; settings: for EC50: MDCK, 72 h, read-out: EC50 for influenza virus A/Puerto Rico/8/34
[9] = system: PR8 virus; type: cell-based, influenza A virus; remark: listed apart in the source
[10] = system: B/Lee/40; type: cell-based, influenza B virus
[11] = system: FECV; experiment: MTT-based antiviral assay, FECV in CrFK cells; type: cell-based, feline coronavirus; settings: maximum concentration of 100 μM, data not shown
[12] = system: PR8 virus NP and HA protein; type: cell-based, influenza A virus; settings: 11, 33 and 100 μM, 24 h at 35 °C
[13] = system: PR8 virus entry; experiment: Confocal microscopy of viral NP; settings: 100 μM, MOI 2.5, 2 h at 37 °C, MDCK cells
[14] = in vitro; settings: dog
[15] = system: HSV; experiment: MTT-based antiviral assay, HSV in Vero cells; type: cell-based, herpes simplex virus; settings: maximum concentration of 100 μM, data not shown
[16] = system: PR8 virus; type: cell-based, influenza A virus; remark: listed apart in the source
[17] = system: influenza A/H1N1, A/H3N2 and B viruses; experiment: CPE reduction assay / screen, stated for the three influenza viruses together; type: cell-based; settings: Influenza A virus, H1N1|H3N2, read-out: virus growth inhibition
[18] = system: wild-type NA derived from influenza H1N1 (A/California/04/2009); type: biochemical

**Q.** With Cc1cc2c(c(=S)[nH]1)C(=O)O/C2=C\c1cccs1 [Compound 15q, (Z)-6-Methyl-1-(thiophen-2-ylmethylene)-4-thioxo-4,5-dihydrofuro[3,4-c]pyridin-3(1H)-one] as the molecule, how does the “antiviral activity against HIV” value [1] read?
**A.** Its value is “no antiviral activity was detected”.

**Q.** What about the “viral RNA polymerase function” value [2] of the same molecule?
**A.** The value was “not changed”.

**Q.** What about the IC50 [3] of the same molecule?
**A.** Its IC50 is 1500 ± 400 nM.

**Q.** What about the “inhibitory effect on cell lysis induced by perforin” value [4] of the same molecule?
**A.** The value was “active”.

**Q.** And the “plaque titer (infectious viral titers)” value [5]?
**A.** The value was “significantly inhibited”.

**Q.** What about the “S.I. (selectivity index, CC50/EC50), A/Hong Kong/8/68” value [6] of the same molecule?
**A.** The value was 6.8 ± 1.3 (>132.4).

**Q.** What about the EC50 [6] of the same molecule?
**A.** The EC50 was 6.8 µM.

**Q.** What about the “antiviral activity against CoxB” value [7] of the same molecule?
**A.** The value was “no antiviral activity was detected”.

**Q.** And the “S.I. (selectivity index, CC50/EC50), A/Puerto Rico/8/34” value [8]?
**A.** Its value is 7.5 ± 3.2 (>120.0).

**Q.** And the EC50 [8]?
**A.** The EC50 was 7.5 µM.

**Q.** And the “vRNA levels in culture supernatants” value [9]?
**A.** Its value is “significantly inhibited”.

**Q.** What about the “S.I. (selectivity index, CC50/EC50), B/Lee/40” value [10] of the same molecule?
**A.** The value was 7.0 ± 3.8 (>128.6).

**Q.** What about the “antiviral activity against FECV” value [11] of the same molecule?
**A.** The value was “no antiviral activity was detected”.

**Q.** And the “viral protein level (NP, HA) in cells” value [12]?
**A.** Its value is “Reduction of the influenza viral protein level”.

**Q.** What about the “NP signal, distribution and intensity in cells” value [13] of the same molecule?
**A.** The value was “not affected”.

**Q.** And the CC50 [14]?
**A.** Its CC50 is > 900 µM.

**Q.** What about the “antiviral activity against HSV” value [15] of the same molecule?
**A.** The value was “no antiviral activity was detected”.

**Q.** With NC(=O)c1nc(F)c[nH]c1=O [Compound T-705, 6-flouro-3-hydroxy-2-pyrazinecarboxamide, reference compound] as the molecule, how does the “viral RNA polymerase function” value [2] read?
**A.** Its value is “suppressed”.

**Q.** What about the EC50 [6] of the same molecule?
**A.** The EC50 was 6.5 ± 1.7 µM.

**Q.** What about the EC50 [8] of the same molecule?
**A.** Its EC50 is 4.3 ± 2.4 µM.

**Q.** What about the “HA titer” value [16] of the same molecule?
**A.** The value was 8 HAU/50 μl.

**Q.** And the CC50 [14]?
**A.** Its CC50 is > 100 µM.

**Q.** Which results are given for CCC(CC)O[C@@H]1C=C(C(=O)O)C[C@H](N)[C@H]1NC(C)=O [Oseltamivir carboxylate, oseltamivir carboxylate, reference compound]?
**A.** EC50 [6]: < 0.01 µM; EC50 [8]: 0.03 ± 0.01 µM; HA titer [16]: no detection; CC50 [14]: > 100 µM

**Q.** With Cc1cc2c(c(=S)[nH]1)C(=O)O/C2=C\c1c[nH]c2ccc(F)cc12 [Compound 15a, (Z)-1-((5-Fluoro-1H-indol-3-yl)methylene)-6-methyl-4-thioxo-4,5-dihydrofuro[3,4-c]pyridin-3(1H)-one] as the molecule, how does the “antiviral activity against HIV” value [1] read?
**A.** Its value is “no antiviral activity was detected”.

**Q.** What about the “viral RNA polymerase function” value [2] of the same molecule?
**A.** The value was “not changed”.

**Q.** What about the IC50 [3] of the same molecule?
**A.** The IC50 was 600 ± 100 nM.

**Q.** What about the inhibition at 20 µM [17] of the same molecule?
**A.** The inhibition at 20 µM was > 50%.

**Q.** And the “plaque titer (infectious viral titers)” value [5]?
**A.** Its value is “significantly inhibited”.

**Q.** What about the “antiviral activity against CoxB” value [7] of the same molecule?
**A.** The value was “no antiviral activity was detected”.

**Q.** What about the “vRNA levels in culture supernatants” value [9] of the same molecule?
**A.** Its value is “significantly inhibited”.

**Q.** What about the “antiviral activity against FECV” value [11] of the same molecule?
**A.** The value was “no antiviral activity was detected”.

**Q.** What about the “viral protein level (NP, HA) in cells” value [12] of the same molecule?
**A.** Its value is “Reduction of the influenza viral protein level”.

**Q.** And the “function of wild-type NA” value [18]?
**A.** The value was “suppressed”.

**Q.** What about the CC50 [14] of the same molecule?
**A.** Its CC50 is > 900 µM.

**Q.** What about the “antiviral activity against HSV” value [15] of the same molecule?
**A.** The value was “no antiviral activity was detected”.

**Q.** Which “NP signal, distribution and intensity in cells” value [13] does the source give for O=C(O[C@@H]1Cc2c(O)cc(O)cc2O[C@@H]1c1cc(O)c(O)c(O)c1)c1cc(O)c(O)c(O)c1 [EGCG, (−)-epigallocatechin-3-gallate, reference compound] here?
**A.** Its value is “reduced the overall NP signal intensity”.
